Results published in PubChem BioAssay (NCI).
Where “and” joins values, the source holds several entries; their conditions need not be identical. Equal entries are not always repeated.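 48-hour exposure; five concentrations; linearly interpolated endpoints. GI50 marks 50% less growth. TGI is the concentration that stops growth completely.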

Tests used:
Test in all cases: DTP human tumour cell line panel, 48 h
[1] = tested on: CAKI-1 renal
[2] = tested on: KM12 colon
[3] = tested on: LOX IMVI melanoma
[4] = tested on: NCI-H226 lung
[5] = tested on: RPMI-8226 leukemia
[6] = tested on: RXF 393 renal
[7] = tested on: SK-MEL-28 melanoma
[8] = tested on: SK-OV-3 ovarian
[9] = tested on: SW-620 colon
[10] = tested on: T-47D breast

SMILES	TGI [1] [µM]	TGI [2] [µM]	TGI [3] [µM]	TGI [4] [µM]	TGI [5] [µM]	TGI [6] [µM]	TGI [7] [µM]	TGI [8] [µM]	TGI [9] [µM]	TGI [10] [µM]	GI50 [10]
CC1CC[C@@]2(OC1)OC1C[C@H]3[C@@H]4CC=C5CC(OC6OC(CO)C(OC7OC(CO)C(O)C(OC8OCC(O)C(O)C8O)C7OC7OC(CO)C(OC8OC(C)C(OC9OC(C)C(O)C(O)C9O)C(O)C8O)C(O)C7O)C(O)C6O)CCC5(C)[C@H]4CCC3(C)C1[C@@H]2C (stereo partly specified)	15.3	17.7	17.3	18.1	25	14.2	20.1	17.3	22.9	20.2	
CC1=NNC(=O)C1C1C(=O)NN=C(c2c[nH]c3ccccc23)C1Br (stereo unspecified)	> 100	34.4	> 100	> 100	> 100	> 100	> 100	> 100	> 100	> 100	
Cc1ccc2nc(SCC(=O)N=Nc3c(O)[nH]c4ccccc34)n(-c3ccccc3)c(=O)c2c1	43.3	27.9	29.8	35.2	35.7	27	31.2	26.7	61.4	34	
CC(C)(C)c1ccc(OCCOc2ccc(C(C)(C)C)cc2N)c(N)c1	> 100	> 100	> 100	> 100	> 100	> 100	> 100	> 100	> 100	> 100	
Oc1cc(Cc2ccccc2)c(Cc2ccccc2)cc1O	> 10	> 10	> 10	> 10	> 10	> 10	> 10	> 10	> 10	> 10	
S=C1c2ccc(Cl)cc2-n2cnnc2C2CSCN12 (stereo unspecified)	> 100	> 100	> 100	> 100	> 100	> 100	> 100	> 100	> 100	> 100	
COC(=O)C1(NC(=O)C(CC(=O)OCc2ccccc2)NC(=O)OCc2ccccc2)CCCCCC1 (stereo unspecified)	48.5	> 100	66	72.7	21.9	> 100	> 100	94.6	> 100	> 100	
CC(=O)c1c(-c2cccc3ccccc23)c(C#N)c(=S)n(C2OC(CO)C(O)C(O)C2O)c1C (stereo unspecified)	> 100	> 100	> 100	> 100	> 100	> 100	> 100	> 100	> 100	> 100	> 100 µM and 27.3 µM
O=C(O)CC(Cc1ccccc1Cl)C(=O)O (stereo unspecified)	> 100	> 100	> 100	> 100	> 100	> 100	> 100	> 100	> 100	> 100	
Nc1n(CC(=O)c2ccccc2)nc2sc(-c3ccccc3)n[n+]12	91.7	39.3	> 100	52.2	58.8	25.1	> 100	92	36.6	> 100	
COc1ccc([C@H]2[C@H]3COC(=O)[C@H]3C(C#N)=C3Sc4ccccc4N32)cc1	> 62.3	> 91.2	> 62.9	> 100	72	38.4	> 100	> 100	> 100	> 82.5	
O=C1[C@H](O)[C@@H]2C(O)O[C@H]3[C@@H]2N1C[C@H]3[Si](c1ccccc1)(c1ccccc1)c1ccccc1 (stereo partly specified)	> 100	> 100	> 100	> 100	> 100	> 100	> 100	> 100	> 100	> 100	
CCOC(=O)c1c(C)n(Cc2ccc(Cl)cc2Cl)c2c1cc(O)c1[nH]c3c(c12)CCCC3	56.4	67.2	> 100	45.5	50.7	41.2	45	> 100	> 100	> 100	
OC1[C@@H]2[C@@H](O)CCCN2C[C@@H](O)[C@H]1O (stereo partly specified)	> 100	> 100	> 100	> 100	> 100	> 100	> 100	> 100	> 100	> 100	
C=CCOC(=O)N1c2ccc(O[Si](C)(C)C(C)(C)C)cc2[C@@]23O[C@@]24[C@@H]1C#C/C=C\C#C[C@]3(O)C(OC)(OC)C[C@@H]4C	> 100	> 100	> 100	> 100	> 100	> 100	> 100	> 100	> 100	> 100	
O=c1[nH]cc(NCCCl)c(=O)[nH]1	> 100	> 100	> 100	> 100	> 100	> 100	> 100	> 100	> 100	> 100	
O=C(O)CCc1nc2c(n1-c1ccccc1)C(=O)c1ccccc1C2=O	> 100	> 100	> 100	> 100	> 100	> 100	> 100	> 100	> 100	> 100	
c1ccc(/C(=N/Nc2nc3ccccc3s2)C2CCCCC2)nc1	21.6	29.6	54.3	27.5	21.9	24.8	25.8	18.7	20.1	15.5	
CCC/C(Cl)=N\OC(=O)Nc1ccc(F)cc1	3.47	42.6	9.97	43.4	15.6	33.1	38.4	> 59.7	27.2	21.9	
